# “Also recorded” adds a separate entry of the source.
# Legend:
# [1] = tested on: proMMP-9; details: ref [32]; cited from earlier work
# Text: (§1) How can MMP-13 avoid this constraint? […] The effect is to move the collagen-binding S10′ pocket of M ...
# [2] = tested on: proMMP-3; details: ref [32]; cited from earlier work
# Text: as §1
# [3] = tested on: proMMP-1; details: ref [7], [31]; cited from earlier work
# Text: as §1
# [4] = biological target: T1, MMP-13 (Homo sapiens, UniProt P45452); test: MMP-13 Toolkit SPBA, pro and active forms, wild type and E204A taken together; type: binding; details: for binding of MMP-13 preparations: all or several MMP-13 preparations, SPBA
# Text: (§2) Recombinant proMMP-13 was expressed and purified as previously described ([18]). […] ProMMP-13(E204A) was expressed in Escherichia coli BL21(DE3), refolded, purified, and activated essentially as described for proMMP-1(E200A) ([19], [20]).
# (§3) Unless stated otherwise, all peptides were triple-helical, a structure maintained by the flanking sequences, GPC(GPP)5- and -(GPP)5-GPC-amide, at their N and C terminus, respectively. For simplicity, peptides are referred to by their specific guest sequence. A negative control peptide, (GPC-(GPP)10-GPC-amide) is referred to as GPP10.
# Immulon 2 HB 96-well plates (Nunc, Langenselbold, Germany) were coated with Collagen Toolkit or other peptides, fibrillar or monomeric collagen at a saturating concentration (10 μg/ml in 0.01 M acetic acid) overnight at 4 °C. Fibrous bovine type I collagen was a gift from Ethicon Corporation (Somerville, NJ). Monomeric collagen was obtained from Devro (Bathurst, Australia). All further incubations were performed at 24 °C for 1 h unless otherwise stated. The wells were washed three times with adhesion buffer (1 mg/ml BSA in Tris-buffered saline (TBS) containing 0.1% (v/v) Tween-20) between each incubation step. The wells were blocked with 50 mg/ml BSA in TBS prior to the addition of MMP at a concentration of 83 nM (unless otherwise stated) in adhesion buffer. […] Rabbit HRP-linked anti-GST (GE Healthcare; dilution 1:10,000) was used to detect GST-Hpx. […] Binding curves were fitted using Prism 5.0 software (GraphPad, San Diego), allowing total binding (Bmax) and equilibrium dissociation constant (KD) to be determined.
# [5] = tested on: Cat domain of MMP-13 (Δ249–451); test: MMP-13 Toolkit SPBA, isolated Cat domain; type: binding; details: data not shown for Toolkit II
# Description: as §2
# (§4) Immulon 2 HB 96-well plates (Nunc, Langenselbold, Germany) were coated with Collagen Toolkit or other peptides, fibrillar or monomeric collagen at a saturating concentration (10 μg/ml in 0.01 M acetic acid) overnight at 4 °C. Fibrous bovine type I collagen was a gift from Ethicon Corporation (Somerville, NJ). Monomeric collagen was obtained from Devro (Bathurst, Australia). All further incubations were performed at 24 °C for 1 h unless otherwise stated. The wells were washed three times with adhesion buffer (1 mg/ml BSA in Tris-buffered saline (TBS) containing 0.1% (v/v) Tween-20) between each incubation step. […] Binding curves were fitted using Prism 5.0 software (GraphPad, San Diego), allowing total binding (Bmax) and equilibrium dissociation constant (KD) to be determined.
# Proteins were C-terminally biotinylated using an EZ-Link® Micro Sulfo-NHS-Biotinylation Kit (Pierce) according to the manufacturer's instructions. Successful biotinylation was detected via Western blotting using an ultrasensitive Streptavidin-Peroxidase Polymer (Sigma).
# [6] = tested on: MMP-13; details: cited from earlier work
# Text: Collagenolytic MMPs are members of the zinc-dependent peptidase family whose tightly regulated proteolytic activities play a pivotal role in extracellular matrix homeostasis, cell migration and wound healing. […] The Cat and Hpx are thought to cooperate to recognize and bind to the cleavage site, in collagen D-period 4 (D4), three-quarters of the way along the tropocollagen molecule ([6], [7]). Binding of the Hpx is considered to facilitate local relaxation of the helix, allowing the Cat d ... || Comparison of the collagenase cleavage sites of the various fibrillar collagens with the sequences of the MMP-13-binding peptides provides a basis for their relative recognition and subsequent cleavage.
# [7] = biological target: T1, MMP-13; test: MMP-13 Toolkit solid-phase binding assay (SPBA), wild type active MMP-13; design: made in house; host or cells: mouse myeloma cells; details: 1 h, 24 °C; for binding: wild type active MMP-13, 83 nM, coating 10 μg/ml
# Text: as §2, §3
# Immulon 2 HB 96-well plates (Nunc, Langenselbold, Germany) were coated with Collagen Toolkit or other peptides, fibrillar or monomeric collagen at a saturating concentration (10 μg/ml in 0.01 M acetic acid) overnight at 4 °C. Fibrous bovine type I collagen was a gift from Ethicon Corporation (Somerville, NJ). […] All further incubations were performed at 24 °C for 1 h unless otherwise stated. The wells were washed three times with adhesion buffer (1 mg/ml BSA in Tris-buffered saline (TBS) containing 0.1% (v/v) Tween-20) between each incubation step. […] Rabbit HRP-linked anti-GST (GE Healthcare; dilution 1:10,000) was used to detect GST-Hpx. […] Binding curves were fitted using Prism 5.0 software (GraphPad, San Diego), allowing total binding (Bmax) and equilibrium dissociation constant (KD) to be determined.
# FIGURE 1. […] For reference, collagen D-periods corresponding to these peptides are shown as gray bars below, and the collagenase cleavage site indicated by an arrow.
# [8] = biological target: T2, MMP-13(E204A) (Homo sapiens, UniProt P45452, E223A); test: MMP-13 Toolkit SPBA, active-site mutant MMP-13(E204A); type: binding; details: 83 nM, coating 10 μg/ml, 1 h, 24 °C
# T2 construct: made in house; host or cells: Escherichia coli BL21(DE3)
# Text: as §2, §3
# as §4, with “determined. […]” for “determined.”
# [9] = tested on: MMP-13 GST-Hpx domain; test: MMP-13 Toolkit SPBA, isolated GST-Hpx domain; type: binding; details: Hpx 83 nM, anti-GST detection, 1 h, 24 °C
# Text: as §2, §3
# as §4, with “determined. […]” for “determined.”
substance,measurement,setting,value
collagen,binding of proMMP-9,[1],can bind collagen
same,binding of proMMP-3,[2],can bind collagen
same,binding of proMMP-1,[3],did not bind
same,binding of MMP-13 preparations,[4],support firm adhesion of MMP-13 in both its active and pro- forms
same,binding,[5],able to recognize collagen; also recorded: bound weakly
collagen II: preferred substrate for MMP-13,relative cleavage rate by MMP-13,"[6]; collagen II compared with collagens I and III, ref [3]",five times faster than collagen I; also recorded: six times faster than collagen III
same,cleavage site of MMP-13,"[6]; position within collagen II helical domain, ref [11], [12]",Gly^775–Leu^776; also recorded: Gly^778–Gln^779
"monomeric type I collagen: Monomeric collagen obtained from Devro (Bathurst, Australia)",binding,[7],much lower binding
same,binding,[8],much lower binding
GCPP(GPPP)2GGPPPG-II-44 guest sequence -P(GPPP)2GGPPPGCPG-amide [linear peptide equivalent to II-44],binding of MMP-13 preparations,[4],negligible binding
same,binding,[7],unable to bind
"fibrillar type I collagen: Fibrous bovine type I collagen, a gift from Ethicon Corporation",Kd,"[4]; fibrillar collagen, MMP-13 preparations overall",~40 nM
same,A450 (adhesion),"[7]; wild type MMP-13 (active or pro form not stated for the numbers), 83 nM, plates coated 10 μg/ml, mean of four experiments",≥ 1.0
same,binding,[5],"bound fibrillar collagen I, albeit weakly"
same,binding,[9],bound fibrillar collagen I
"GPQG∼LAGQRGIVGLOGQRGER [44J, 21-residue peptide, P4 to P17′, parent of the Ala-scan]",binding of MMP-13 preparations,[4],"MMP-13(E204A) binding most strongly (A450 ∼0.8), then proMMP-13, then proMMP-13(E204A), then active MMP-13, and lastly the Hpx domain alone"
same,A450 (adhesion),[8]; mean of four experiments,~0.8
same,A450 (adhesion),"[9]; coating 10 μg/ml, mean of four experiments",~0.4
"GFOGLOGPS [44B, peptide containing only the missing triplets, GFOGLOGPS]",binding of MMP-13 preparations,[4],supported no binding

# Reference: publication PMC4148842 (The Journal of Biological Chemistry, 2014)
